Results: article PMC10424178, “Discovery of 5-Phenylpyrazolopyrimidinone Analogs as Potent Antitrypanosomal Agents with In Vivo Efficacy” (Journal of Medicinal Chemistry, 2023)
Entries after “also recorded” stand apart in the source; their conditions may differ.

Key:
T. b. brucei [1] = assay: Antitrypanosomal assay, T. brucei Squib 427, resazurin viability; format: cell-based; settings: for times more potent than 1 against T. b. brucei: relative to 1
TbrPDEB1 = TbrPDEB1 (Trypanosoma brucei, UniProt Q8WQX9); assay: TbrPDEB1 enzyme assay (PDELight HTS cAMP phosphodiesterase kit); format: biochemical, T. brucei
Chain of TbrPDEB1 (Q8WQX9 entry or part of it): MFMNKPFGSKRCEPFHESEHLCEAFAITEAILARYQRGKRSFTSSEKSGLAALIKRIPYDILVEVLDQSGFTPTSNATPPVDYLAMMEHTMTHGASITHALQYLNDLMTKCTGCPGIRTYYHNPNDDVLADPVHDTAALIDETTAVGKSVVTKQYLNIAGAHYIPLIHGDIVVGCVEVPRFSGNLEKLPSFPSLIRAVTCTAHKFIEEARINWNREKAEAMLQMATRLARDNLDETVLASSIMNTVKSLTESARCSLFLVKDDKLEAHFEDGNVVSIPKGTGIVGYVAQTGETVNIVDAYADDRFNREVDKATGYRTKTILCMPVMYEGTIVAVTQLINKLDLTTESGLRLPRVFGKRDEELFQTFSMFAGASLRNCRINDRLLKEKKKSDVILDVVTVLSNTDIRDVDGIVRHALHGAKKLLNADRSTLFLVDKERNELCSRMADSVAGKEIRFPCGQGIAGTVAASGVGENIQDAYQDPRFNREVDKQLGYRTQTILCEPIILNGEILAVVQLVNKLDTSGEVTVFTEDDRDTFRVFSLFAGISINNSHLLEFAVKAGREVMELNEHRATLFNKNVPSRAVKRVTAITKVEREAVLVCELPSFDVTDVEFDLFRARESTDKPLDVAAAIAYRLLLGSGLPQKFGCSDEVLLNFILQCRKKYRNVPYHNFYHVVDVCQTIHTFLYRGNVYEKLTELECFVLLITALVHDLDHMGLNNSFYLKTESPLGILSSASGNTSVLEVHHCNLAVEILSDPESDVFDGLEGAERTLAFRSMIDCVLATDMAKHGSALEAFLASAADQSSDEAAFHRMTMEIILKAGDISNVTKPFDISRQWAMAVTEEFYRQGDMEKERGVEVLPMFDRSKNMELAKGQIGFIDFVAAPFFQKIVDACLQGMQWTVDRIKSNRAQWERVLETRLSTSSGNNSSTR

human PDE4D2 = human PDE4D2 (Homo sapiens, UniProt Q08499); assay: Eurofins Safety-47 panel, PDE4D2; settings: read-out: inhibition of human PDE4D2
Chain of human PDE4D2 (Q08499 303-809): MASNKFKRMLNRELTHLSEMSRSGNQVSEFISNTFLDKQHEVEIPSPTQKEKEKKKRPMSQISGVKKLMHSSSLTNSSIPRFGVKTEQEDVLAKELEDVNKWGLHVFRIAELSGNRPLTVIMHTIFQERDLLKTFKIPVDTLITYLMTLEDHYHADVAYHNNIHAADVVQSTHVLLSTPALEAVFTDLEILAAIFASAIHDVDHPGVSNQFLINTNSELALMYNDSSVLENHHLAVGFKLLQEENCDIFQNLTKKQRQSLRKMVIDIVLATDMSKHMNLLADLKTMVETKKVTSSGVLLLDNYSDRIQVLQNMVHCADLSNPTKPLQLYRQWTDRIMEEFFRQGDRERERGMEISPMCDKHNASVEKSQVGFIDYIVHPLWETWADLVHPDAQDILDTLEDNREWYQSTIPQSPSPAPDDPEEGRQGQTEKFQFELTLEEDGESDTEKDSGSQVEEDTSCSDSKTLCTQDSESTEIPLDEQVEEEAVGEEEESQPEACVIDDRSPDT

PDE5 = PDE5 (Homo sapiens, UniProt O76074); assay: PDE5 inhibition; format: biochemical
T. b. brucei [2] = assay: Acute (stage-I) mouse model of T. b. brucei infection; format: in vivo

## COc1ccccc1-c1nc2c(C(C)C)n[nH]c2c(=O)[nH]1 [compound 22, 3-Isopropyl-5-(2-methoxyphenyl)-1,6-dihydro-7H-pyrazolo[4,3-d]pyrimidin-7-one]
T. b. brucei [1]; relative to 15
  reduction in potency against T. b. brucei compared with 15: 25 fold

## CC(C)c1n[nH]c2c(=O)[nH]c(-c3ccc(N4CCN(C)CC4)cc3)nc12 [compound 45, 3-Isopropyl-5-(4-(4-methylpiperazin-1-yl)phenyl)-1,6-dihydro-7H-pyrazolo[4,3-d]pyrimidin-7-one]
T. b. brucei [1]; Trypanosoma brucei, T. brucei Squib 427 strain, 72 h drug exposure, highest concentration 64 μM, mean of at least two independent experiments, read-out: T. b. brucei pIC50 (converted)
  IC50: 20 µM

## CC(C)c1n[nH]c2c(=O)[nH]c(-c3ccccc3)nc12 [compound 15, 3-Isopropyl-5-phenyl-1,6-dihydro-7H-pyrazolo[4,3-d]pyrimidin-7-one]
T. b. brucei [1]
  times more potent than 1 against T. b. brucei: 125 times

## CC(C)c1n[nH]c2c(=O)[nH]c(-c3ccncc3)nc12 [compound 16, 3-Isopropyl-5-(pyridin-4-yl)-1,6-dihydro-7H-pyrazolo[4,3-d]pyrimidin-7-one]
T. b. brucei [1]
  times more potent than 1 against T. b. brucei: 16 times

## CC(C)c1n[nH]c2c(=O)[nH]c(-c3ccc(F)cc3)nc12 [compound 30, 5-(4-Fluorophenyl)-3-isopropyl-1,6-dihydro-7H-pyrazolo[4,3-d]pyrimidin-7-one]
TbrPDEB1
  TbrPDEB1 inhibition pKi: inactive
Human PDE4D2
  inhibition at 10 µM: 75%
PDE5
  inhibition at 10 µM: 52%
T. b. brucei [2]; 25 mg/kg b.i.d. for 5 days
  time by which all animals relapsed and succumbed: ≤ 11 dpi
T. b. brucei [2]; 50 mg/kg PO twice daily for 5 consecutive days, follow-up 60 dpi
  outcome of treatment (parasitemia / cure): all infected mice were cured; also recorded: apparent full clearance of parasitemia; also recorded: complete cure
